S=c1[nH]c2ccccc2s1
Conditions | solubility (mole fraction)
in 1,4-dioxane, 285.65 K | 0.0438
in 1,4-dioxane, 288.15 K | 0.0466
in 1,4-dioxane, 290.65 K | 0.0502
in 1,4-dioxane, 293.15 K | 0.0536
in 1,4-dioxane, 295.65 K | 0.0574
in 1,4-dioxane, 298.15 K | 0.0613
in 1,4-dioxane, 300.65 K | 0.0652
in 1,4-dioxane, 303.15 K | 0.0698
in 1,4-dioxane, 305.65 K | 0.0742
in 1,4-dioxane, 308.15 K | 0.079
in 1,4-dioxane, 310.65 K | 0.0835
in 1,4-dioxane, 313.15 K | 0.0893
in 1,4-dioxane, 315.65 K | 0.0943
in 1,4-dioxane, 318.15 K | 0.101
in 2-butanone, 273.15 K | 0.0695
in 2-butanone, 275.65 K | 0.0722
in 2-butanone, 278.15 K | 0.0752
in 2-butanone, 280.65 K | 0.0778
in 2-butanone, 283.15 K | 0.0807
in 2-butanone, 285.65 K | 0.0837
in 2-butanone, 288.15 K | 0.0867
in 2-butanone, 290.65 K | 0.0902
in 2-butanone, 293.15 K | 0.093
in 2-butanone, 295.65 K | 0.0967
in 2-butanone, 298.15 K | 0.0995
in 2-butanone, 300.65 K | 0.103
in 2-butanone, 303.15 K | 0.106
in 2-butanone, 305.65 K | 0.11
in 2-butanone, 308.15 K | 0.113
in 2-butanone, 310.65 K | 0.116
in 2-butanone, 313.15 K | 0.12
in 2-butanone, 315.65 K | 0.124
in 2-butanone, 318.15 K | 0.128
in acetonitrile, 273.15 K | 0.00426
in acetonitrile, 275.65 K | 0.00467
in acetonitrile, 278.15 K | 0.00507
in acetonitrile, 280.65 K | 0.00553
in acetonitrile, 283.15 K | 0.00597
in acetonitrile, 285.65 K | 0.00647
in acetonitrile, 288.15 K | 0.00705
in acetonitrile, 290.65 K | 0.00762
in acetonitrile, 293.15 K | 0.00819
in acetonitrile, 295.65 K | 0.00885
in acetonitrile, 298.15 K | 0.00956
in acetonitrile, 300.65 K | 0.0102
in acetonitrile, 303.15 K | 0.011
in acetonitrile, 305.65 K | 0.0118
in acetonitrile, 308.15 K | 0.0127
in acetonitrile, 310.65 K | 0.0137
in acetonitrile, 313.15 K | 0.0146
in acetonitrile, 315.65 K | 0.0155
in acetonitrile, 318.15 K | 0.0167
in chloroform, 273.15 K | 0.00683
in chloroform, 275.65 K | 0.0072
in chloroform, 278.15 K | 0.00766
in chloroform, 280.65 K | 0.00816
in chloroform, 283.15 K | 0.00865
in chloroform, 285.65 K | 0.00922
in chloroform, 288.15 K | 0.00972
in chloroform, 290.65 K | 0.0104
in chloroform, 293.15 K | 0.0109
in chloroform, 295.65 K | 0.0115
in chloroform, 298.15 K | 0.0121
in chloroform, 300.65 K | 0.0128
in chloroform, 303.15 K | 0.0135
in chloroform, 305.65 K | 0.0142
in chloroform, 308.15 K | 0.0149
in chloroform, 310.65 K | 0.0156
in chloroform, 313.15 K | 0.0165
in chloroform, 315.65 K | 0.0172
in chloroform, 318.15 K | 0.0182
in ethyl acetate, 273.15 K | 0.0274
in ethyl acetate, 275.65 K | 0.0286
in ethyl acetate, 278.15 K | 0.0297
in ethyl acetate, 280.65 K | 0.0309
in ethyl acetate, 283.15 K | 0.0323
in ethyl acetate, 285.65 K | 0.0336
in ethyl acetate, 288.15 K | 0.0348
in ethyl acetate, 290.65 K | 0.0361
in ethyl acetate, 293.15 K | 0.0374
in ethyl acetate, 295.65 K | 0.0389
in ethyl acetate, 298.15 K | 0.0403
in ethyl acetate, 300.65 K | 0.0419
in ethyl acetate, 303.15 K | 0.0434
in ethyl acetate, 305.65 K | 0.0448
in ethyl acetate, 308.15 K | 0.0465
in ethyl acetate, 310.65 K | 0.0482
in ethyl acetate, 313.15 K | 0.0499
in ethyl acetate, 315.65 K | 0.0513
in ethyl acetate, 318.15 K | 0.0532
in isobutanol, 273.15 K | 0.0101
in isobutanol, 275.65 K | 0.011
in isobutanol, 278.15 K | 0.012
in isobutanol, 280.65 K | 0.0132
in isobutanol, 283.15 K | 0.0143
in isobutanol, 285.65 K | 0.0155
in isobutanol, 288.15 K | 0.0169
in isobutanol, 290.65 K | 0.0184
in isobutanol, 293.15 K | 0.0199
in isobutanol, 295.65 K | 0.0215
in isobutanol, 298.15 K | 0.0231
in isobutanol, 300.65 K | 0.0252
in isobutanol, 303.15 K | 0.027
in isobutanol, 305.65 K | 0.0292
in isobutanol, 308.15 K | 0.0311
in isobutanol, 310.65 K | 0.0336
in isobutanol, 313.15 K | 0.0361
in isobutanol, 315.65 K | 0.0386
in isobutanol, 318.15 K | 0.0411
in isopropanol, 273.15 K | 0.00949
in isopropanol, 275.65 K | 0.0103
in isopropanol, 278.15 K | 0.0111
in isopropanol, 280.65 K | 0.0122
in isopropanol, 283.15 K | 0.0134
in isopropanol, 285.65 K | 0.0148
in isopropanol, 288.15 K | 0.0161
in isopropanol, 290.65 K | 0.0175
in isopropanol, 293.15 K | 0.0192
in isopropanol, 295.65 K | 0.0208
in isopropanol, 298.15 K | 0.0224
in isopropanol, 300.65 K | 0.0242
in isopropanol, 303.15 K | 0.0261
in isopropanol, 305.65 K | 0.0282
in isopropanol, 308.15 K | 0.0305
in isopropanol, 310.65 K | 0.0328
in isopropanol, 313.15 K | 0.0352
in isopropanol, 315.65 K | 0.0378
in isopropanol, 318.15 K | 0.0408
in methanol, 273.15 K | 0.00733
in methanol, 275.65 K | 0.00795
in methanol, 278.15 K | 0.00868
in methanol, 280.65 K | 0.00946
in methanol, 283.15 K | 0.0103
in methanol, 285.65 K | 0.0111
in methanol, 288.15 K | 0.0121
in methanol, 290.65 K | 0.0131
in methanol, 293.15 K | 0.0141
in methanol, 295.65 K | 0.0153
in methanol, 298.15 K | 0.0164
in methanol, 300.65 K | 0.0178
in methanol, 303.15 K | 0.0192
in methanol, 305.65 K | 0.0205
in methanol, 308.15 K | 0.022
in methanol, 310.65 K | 0.0235
in methanol, 313.15 K | 0.0252
in methanol, 315.65 K | 0.0269
in methanol, 318.15 K | 0.0289
in n-butanol, 273.15 K | 0.0198
in n-butanol, 275.65 K | 0.0211
in n-butanol, 278.15 K | 0.0224
in n-butanol, 280.65 K | 0.0238
in n-butanol, 283.15 K | 0.0252
in n-butanol, 285.65 K | 0.0265
in n-butanol, 288.15 K | 0.0281
in n-butanol, 290.65 K | 0.0299
in n-butanol, 293.15 K | 0.0314
in n-butanol, 295.65 K | 0.0332
in n-butanol, 298.15 K | 0.0349
in n-butanol, 300.65 K | 0.0368
in n-butanol, 303.15 K | 0.0386
in n-butanol, 305.65 K | 0.0405
in n-butanol, 308.15 K | 0.0425
in n-butanol, 310.65 K | 0.045
in n-butanol, 313.15 K | 0.0468
in n-butanol, 315.65 K | 0.0489
in n-butanol, 318.15 K | 0.0513
in n-propanol, 273.15 K | 0.015
in n-propanol, 275.65 K | 0.016
in n-propanol, 278.15 K | 0.017
in n-propanol, 280.65 K | 0.0181
in n-propanol, 283.15 K | 0.0194
in n-propanol, 285.65 K | 0.0205
in n-propanol, 288.15 K | 0.0219
in n-propanol, 290.65 K | 0.0232
in n-propanol, 293.15 K | 0.0245
in n-propanol, 295.65 K | 0.026
in n-propanol, 298.15 K | 0.0277
in n-propanol, 300.65 K | 0.029
in n-propanol, 303.15 K | 0.0309
in n-propanol, 305.65 K | 0.0324
in n-propanol, 308.15 K | 0.0342
in n-propanol, 310.65 K | 0.036
in n-propanol, 313.15 K | 0.038
in n-propanol, 315.65 K | 0.04
in n-propanol, 318.15 K | 0.0421
in toluene, 273.15 K | 0.00192
in toluene, 275.65 K | 0.00205
in toluene, 278.15 K | 0.0022
in toluene, 280.65 K | 0.00236
in toluene, 283.15 K | 0.00254
in toluene, 285.65 K | 0.00272
in toluene, 288.15 K | 0.0029
in toluene, 290.65 K | 0.0031
in toluene, 293.15 K | 0.00333
in toluene, 295.65 K | 0.00354
in toluene, 298.15 K | 0.00378
in toluene, 300.65 K | 0.00405
in toluene, 303.15 K | 0.00427
in toluene, 305.65 K | 0.00454
in toluene, 308.15 K | 0.00482
in toluene, 310.65 K | 0.0051
in toluene, 313.15 K | 0.00544
in toluene, 315.65 K | 0.00572
in toluene, 318.15 K | 0.00608

— BigSolDB 2.1
